Data on 24 compounds can be found in US20160194683A1, “Gas Biosensors” (priority 2013, published 2016).

Like-named read-outs stand apart in the source and are kept apart here.

In data set [1] the target is XylR of Pseudomonas putida (Pseudomonas putida, UniProt P06519).
Data set [2] has as its target T1, TodST of P. putida (Pseudomonas putida, UniProt A5W4E3).
T1 construct: host or cells: P. putida str; F1
Particulars: host P. putida str. F1; todXp-luxCDABE; cited from earlier work.

For data set [3], the system named is TbuT of Ralstonia pickettii. Particulars: host E. coli; tbuAlp-luxAB; cited from earlier work.
Data set [4] concerns E. coli MG1655. Briefly: Growth of E. coli MG1655 MHT integration strains in LB plus 200 mM KBr. To be noted: headspace gas collected at 5 hrs. The data set is classed as cell-based. An excerpt:
Three strains carrying an integrated Batis maritima MHT gene (BmMHT) were created by coupling the BmMHT gene to a constitutive promoter (P14) and three ribosomal binding sites (RBS) with different strengths (BCD2, BCD8, BCD14) in the integration vector pOSIP. Each was integrated into the phage 186 attachment site within the genome of E. coli MG1655 using the site specific recombinase from phage 186. Strains having the desired chromosomal insertions were verified by PCR.
Cells with a genomic copy of the MHT construct under control of the three different RBS were then tested for MHT activity by growing the cells in LB plus 200 mM KBr. Headspace gas was collected at 5 hrs, and CH3Br measured by GC-MS.
The CH3Br gas was readily detectable in the headspace, whereas the uninduced vector control cells produced no gas at all.

Data set [5] deals with FruR of Erwinia herbicola. Particulars: cited from earlier work.
The target in data set [6] is AraC of E. coli (Escherichia coli, UniProt P0A9E0). Particulars: cited from earlier work.
Data set [7] has as its system PhnR of Burkholderia sartisoli. To be noted: host B. sartisoli; phnSp-luxAB; cited from earlier work.
The target in data set [8] is T2, NahR of P. putida (Pseudomonas putida, UniProt P10183).
T2 construct: host or cells: P. putida
T2 sequence (P10183 1-300): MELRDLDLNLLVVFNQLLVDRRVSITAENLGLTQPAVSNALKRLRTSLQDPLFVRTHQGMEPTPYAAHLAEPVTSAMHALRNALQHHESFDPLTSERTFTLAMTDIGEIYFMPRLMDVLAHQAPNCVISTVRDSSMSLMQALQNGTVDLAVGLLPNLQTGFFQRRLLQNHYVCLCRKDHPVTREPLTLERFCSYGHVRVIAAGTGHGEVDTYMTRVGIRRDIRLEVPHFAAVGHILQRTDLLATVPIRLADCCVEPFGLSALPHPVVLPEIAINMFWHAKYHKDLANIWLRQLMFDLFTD
To be noted: host P. putida; nahGp-luxAB; cited from earlier work.

Data set [9] deals with DmpR of P. putida. To be noted: host P. putida; Po-luxAB; cited from earlier work.
In data set [10] the test system is SOS response proteins of B. subtilis. Particulars: host B. subtilis; yorBp-lucFF; cited from earlier work.
The test system of data set [11] is MphR of E. coli. Particulars: host E. coli; mphAp-lacZ; cited from earlier work.
Data set [12] concerns SpoIIID and σ^E of B. subtilis. Particulars: host B. subtilis; yheI-lucFF; cited from earlier work.
Data set [13] concerns DnaK and σ32 of E. coli. To be noted: host E. coli; dnaKp-luxCDABE; increase in intracellular misfolded proteins; cited from earlier work.
The test system of data set [14] is Crp-cAMP transcriptional dual regulator of E. coli. To be noted: host E. coli; grpEP-luxCDABE; increase in intracellular misfolded proteins; cited from earlier work.
The test system of data set [15] is ArsR of E. coli. Particulars: host E. coli; arsRp-luxAB; cited from earlier work.
Data set [16] deals with RecA-LexA of E. coli. Particulars: host E. coli; reAp-luxCDABE; cited from earlier work.
Data set [17] concerns RecA-LexA of E. coli. To be noted: host E. coli; sfiA-lacZ; cited from earlier work.
Setting [18] is: host Escherichia coli; Pu-lucFF; cited from earlier work.

T1 sequence (A5W4E3 whole entry): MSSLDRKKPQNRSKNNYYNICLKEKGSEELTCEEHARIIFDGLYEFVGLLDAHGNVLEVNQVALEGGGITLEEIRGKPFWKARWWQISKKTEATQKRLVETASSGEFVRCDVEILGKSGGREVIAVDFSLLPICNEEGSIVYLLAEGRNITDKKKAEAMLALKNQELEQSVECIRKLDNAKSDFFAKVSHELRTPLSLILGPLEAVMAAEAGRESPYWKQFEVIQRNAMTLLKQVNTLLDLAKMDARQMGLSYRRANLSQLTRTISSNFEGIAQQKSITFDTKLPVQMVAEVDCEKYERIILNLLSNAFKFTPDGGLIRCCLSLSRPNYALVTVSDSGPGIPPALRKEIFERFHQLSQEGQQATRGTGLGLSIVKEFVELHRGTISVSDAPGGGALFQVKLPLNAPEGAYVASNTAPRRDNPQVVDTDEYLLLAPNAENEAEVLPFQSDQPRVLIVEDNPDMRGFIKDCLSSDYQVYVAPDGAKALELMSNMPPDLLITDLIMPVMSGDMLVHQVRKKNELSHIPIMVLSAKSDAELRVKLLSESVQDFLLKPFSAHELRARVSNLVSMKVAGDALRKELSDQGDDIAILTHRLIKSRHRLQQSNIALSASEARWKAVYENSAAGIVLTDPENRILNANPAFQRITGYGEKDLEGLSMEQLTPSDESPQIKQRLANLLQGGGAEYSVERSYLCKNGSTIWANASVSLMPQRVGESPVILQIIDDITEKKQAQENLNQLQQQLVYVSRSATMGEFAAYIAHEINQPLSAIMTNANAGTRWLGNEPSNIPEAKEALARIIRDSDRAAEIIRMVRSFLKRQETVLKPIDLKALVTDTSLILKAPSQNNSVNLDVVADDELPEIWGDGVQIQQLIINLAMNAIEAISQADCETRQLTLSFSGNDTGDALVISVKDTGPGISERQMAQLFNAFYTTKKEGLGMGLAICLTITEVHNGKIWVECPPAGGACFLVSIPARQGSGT
Chain of XylR of Pseudomonas putida (P06519 whole entry): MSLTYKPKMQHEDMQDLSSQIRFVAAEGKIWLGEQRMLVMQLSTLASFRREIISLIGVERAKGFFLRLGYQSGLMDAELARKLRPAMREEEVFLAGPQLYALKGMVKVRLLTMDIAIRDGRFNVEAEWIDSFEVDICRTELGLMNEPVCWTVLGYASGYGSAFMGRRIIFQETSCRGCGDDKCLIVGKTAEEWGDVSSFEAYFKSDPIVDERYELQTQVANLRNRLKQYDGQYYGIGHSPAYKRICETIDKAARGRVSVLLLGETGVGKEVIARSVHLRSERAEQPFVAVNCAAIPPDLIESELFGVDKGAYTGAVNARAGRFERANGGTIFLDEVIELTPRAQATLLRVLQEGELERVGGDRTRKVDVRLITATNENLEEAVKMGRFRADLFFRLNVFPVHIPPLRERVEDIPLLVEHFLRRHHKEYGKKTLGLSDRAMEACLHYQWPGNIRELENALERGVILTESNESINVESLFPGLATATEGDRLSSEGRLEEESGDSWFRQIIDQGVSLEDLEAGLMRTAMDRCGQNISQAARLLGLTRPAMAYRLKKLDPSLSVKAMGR
Chain of AraC of E. coli (P0A9E0 whole entry): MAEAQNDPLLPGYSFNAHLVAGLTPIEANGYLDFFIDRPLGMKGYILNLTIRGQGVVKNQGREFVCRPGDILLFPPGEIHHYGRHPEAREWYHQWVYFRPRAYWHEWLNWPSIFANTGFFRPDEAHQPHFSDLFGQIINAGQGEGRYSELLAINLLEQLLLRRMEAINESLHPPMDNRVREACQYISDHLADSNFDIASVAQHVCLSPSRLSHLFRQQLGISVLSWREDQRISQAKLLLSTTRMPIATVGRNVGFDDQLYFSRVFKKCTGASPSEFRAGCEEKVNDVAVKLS

`Cc1cccc(CO)c1` [3-methylbenzylalcohol]: the EC50 in [1] (E. coli, firefly luciferase under XylR and Pu; means±standard deviations; read-out: K1/2 of luminescence concentration dependence; cited from earlier work) was 2690 µM.
Consider `c1ccccc1` [Benzene], for which the Detection sensitivity was 0.3 µM in data set [2], 40 µM in data set [1] (setting [18]) and 0.24 µM in data set [3].
Take `CBr` [CH3Br]: the “Toxicity to cells (cell growth)” value in [4] is reported as “Neither the bromine ions, nor the CH3Br gas were toxic”.
On to `O=C(CO)[C@@H](O)[C@H](O)[C@H](O)CO` [Fructose], for which, in data set [5], the Detection sensitivity is around 2 µM.
In the case of `O=C[C@H](O)[C@@H](O)[C@@H](O)CO` [L-Arabinose], in data set [6], the Detection sensitivity is 0.5 µM.
Regarding `c1ccc2ccccc2c1` [Naphthalene], the Detection sensitivity was 0.17 µM in data set [7] and 10 nM in data set [8].
In the case of `Oc1ccccc1` [Phenol], the Detection sensitivity in [2] was 0.3 µM; in data set [9], 3 µM.
On to `Br` [bromine ions], for which the “Toxicity to cells (cell growth)” value in data set [4] was “Neither the bromine ions, nor the CH3Br gas were toxic”.
Regarding `O=C(O)c1cn(C2CC2)c2cc(N3CCNCC3)c(F)cc2c1=O` [ciprofloxacin], the Detection sensitivity in [10] is reported as 60 nM.
Turning to `CC[C@H]1OC(=O)[C@H](C)[C@@H](O[C@H]2C[C@@](C)(OC)[C@@H](O)[C@H](C)O2)[C@H](C)[C@@H](O[C@@H]2O[C@H](C)C[C@H](N(C)C)[C@H]2O)[C@](C)(O)C[C@@H](C)C(=O)[C@H](C)[C@@H](O)[C@]1(C)O` [erythromycin], in [11], the Detection sensitivity is around 10 µM.
For `CC(=O)NC[C@H]1CN(c2ccc(N3CCOCC3)c(F)c2)C(=O)O1` [linezolid], the Detection sensitivity in data set [12] was 0.1 µM.
As for `Cc1cccc(C)c1` [m-xylene], the Detection sensitivity in data set [2] is 0.3 µM. Moreover, the EC50 in [1] (read-out: K1/2 of luminescence concentration dependence; E. coli, firefly luciferase under XylR and Pu; means±standard deviations; cited from earlier work) was 39 ± 3.8 µM.
For `CO` [methanol], in [13], the Detection sensitivity is 0.25M methanol,.
Regarding `Cc1ccc(C)cc1` [p-xylene], the Detection sensitivity in data set [2] is 0.3 µM.
Consider `Oc1c(Cl)c(Cl)c(Cl)c(Cl)c1Cl` [pentachlorophenol], for which the Detection sensitivity in [14] is reported as 0.14 nM.
In the case of `c1ccc2c(c1)ccc1ccccc12` [phenanthrene], in [7], the Detection sensitivity was 0.17 µM.
As for `O=C(O)c1ccccc1O` [salicylate], the Detection sensitivity in data set [8] is given as 10 nM.
Regarding `OC[C@H]1O[C@@](CO)(O[C@H]2O[C@H](CO)[C@@H](O)[C@H](O)[C@H]2O)[C@@H](O)[C@@H]1O` [sucrose], the Detection sensitivity in data set [5] is around 2 µM.
For the compound `Cc1ccccc1` [toluene], the Detection sensitivity in [2] is 0.3 µM; in [1] (setting [18]) it was 40 µM; in data set [3], 0.24 µM.
As for `ClC=C(Cl)Cl` [trichloroethene], the Detection sensitivity in data set [2] is 0.3 µM.
As to Arsenite, the Detection sensitivity in data set [15] was 5 nM.
Regarding Xylene, the Detection sensitivity in data set [1] (setting [18]) is 40 µM; in data set [3] it was 0.24 µM.
With antimonite, the Detection sensitivity in [15] was 5 nM.
As for mitomycin C, the Detection sensitivity in data set [16] is listed as 0.2 nM mitomycin C; in [17] it was 4 nM mitomycin C.
